Experimental data as given in ChEMBL document CHEMBL4350967, “The Trifluoromethyl Group as a Bioisosteric Replacement of the Aliphatic Nitro Group in CB1 Receptor Positive Allosteric Modulators” (J Med Chem, 2019).

Tests used:
[1] = biological target: T1, Cannabinoid receptor 1 (Homo sapiens, UniProt P21554); assay: Positive allosteric modulation of human CB1 receptor expressed in CHOK1 cells assessed as increase in CP55940-induced beta-arrestin recruitment at 1 uM preincubated for 30 mins followed by CP55940 addition and measured after 90 to 180 mins by PathHunter assay relative to CP55940; assay type: cell-based
T1 sequence (P21554 whole entry): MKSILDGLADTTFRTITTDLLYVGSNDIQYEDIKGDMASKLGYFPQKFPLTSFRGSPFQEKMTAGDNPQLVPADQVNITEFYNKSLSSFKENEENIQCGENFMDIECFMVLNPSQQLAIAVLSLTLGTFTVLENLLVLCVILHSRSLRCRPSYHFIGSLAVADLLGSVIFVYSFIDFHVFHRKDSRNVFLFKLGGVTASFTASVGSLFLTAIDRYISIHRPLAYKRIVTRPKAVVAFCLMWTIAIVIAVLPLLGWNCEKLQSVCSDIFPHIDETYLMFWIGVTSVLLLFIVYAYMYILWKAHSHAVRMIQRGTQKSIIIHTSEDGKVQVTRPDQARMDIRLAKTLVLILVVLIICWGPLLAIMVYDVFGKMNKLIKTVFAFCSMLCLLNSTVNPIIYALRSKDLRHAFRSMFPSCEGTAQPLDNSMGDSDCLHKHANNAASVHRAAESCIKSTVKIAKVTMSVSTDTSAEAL

[2] = biological target: T1, Cannabinoid receptor 1; assay: Positive allosteric modulation of human CB1 receptor expressed in CHOK1 cells assessed as increase in CP55940-induced beta-arrestin recruitment at 200 nM preincubated for 30 mins followed by CP55940 addition and measured after 90 to 180 mins by PathHunter assay relative to CP55940; assay type: cell-based
[3] = biological target: T1, Cannabinoid receptor 1; assay: Positive allosteric modulation of human CB1 receptor expressed in CHOK1 cells assessed as increase in CP55940-induced beta-arrestin recruitment preincubated for 30 mins followed by CP55940 addition and measured after 90 to 180 mins by PathHunter assay relative to CP55940; assay type: cell-based
[4] = biological target: T1, Cannabinoid receptor 1; assay: Positive allosteric modulation of human CB1 receptor expressed in CHOK1 cells assessed as increase in CP55940-induced beta-arrestin recruitment at 1000 nM preincubated for 30 mins followed by CP55940 addition and measured after 90 to 180 mins by PathHunter assay relative to CP55940; assay type: cell-based
[5] = biological target: T1, Cannabinoid receptor 1; assay: Positive allosteric modulation of human CB1 receptor expressed in CHOK1 cells assessed as increase in CP55940-induced beta-arrestin recruitment at 500 nM preincubated for 30 mins followed by CP55940 addition and measured after 90 to 180 mins by PathHunter assay relative to CP55940; assay type: cell-based
[6] = biological target: T1, Cannabinoid receptor 1; assay: Positive allosteric modulation of human CB1 receptor expressed in CHOK1 cells assessed as increase in CP55940-induced beta-arrestin recruitment preincubated for 30 mins followed by CP55940 addition and measured after 90 to 180 mins by PathHunter assay; assay type: cell-based
[7] = biological target: T1, Cannabinoid receptor 1; assay: Agonist activity at human CB1 receptor expressed in CHOK1 cells assessed as induction of beta-arrestin recruitment measured after 30 mins by PathHunter assay; assay type: cell-based
[8] = biological target: T1, Cannabinoid receptor 1; assay: Agonist activity at human Gi/Go-coupled CB1 receptor expressed in CHOK1 cells assessed as inhibition of forskolin-stimulated cAMP production measured after 30 mins by Hit-hunter assay
[9] = biological target: T1, Cannabinoid receptor 1; assay: Agonist activity at human Gi/Go-coupled CB1 receptor expressed in CHOK1 cells assessed as inhibition of forskolin-stimulated cAMP production measured after 30 mins by Hit-hunter assay relative to CP55940; assay type: cell-based; conditions: 0.5 h, read-out: Emax
[10] = biological target: T1, Cannabinoid receptor 1
[11] = Half life in human liver microsomes at 3 uM in presence of NADPH by LC-MS/MS analysis; assay type: ADME, Microsome
[12] = Half life in rat liver microsomes at 3 uM in presence of NADPH by LC-MS/MS analysis; assay type: ADME, Microsome

## Nc1ccc2c(C(CC(F)(F)F)c3cccs3)c(-c3ccccc3)[nH]c2c1 (racemic)
[1]
  Activity: < 50%

## COC(=O)c1ccc2c(C(CC(F)(F)F)c3cccs3)c(-c3ccccc3)[nH]c2c1 (single isomer, unassigned; (+))
[2]
  Activity: > 50%
[3]
  Emax: 156%

## O=C(O)CC(c1ccccc1)c1c(-c2ccccc2)[nH]c2ccccc12 (stereo in doubt; (-)-26)
[1]
  Activity: < 50%

## FC(F)(F)CC(c1ccccc1)c1c(-c2ccccc2)[nH]c2cc(C(F)(F)F)ccc12 (racemic)
[2]
  Activity: > 50%

## Cc1ccc2c(C(CC(F)(F)F)c3ccco3)c(-c3ccccc3)[nH]c2c1 (racemic)
[4]
  Activity: > 50%

## CS(=O)(=O)Nc1ccc2c(C(CC(F)(F)F)c3cccs3)c(-c3ccccc3)[nH]c2c1 (racemic)
[1]
  Activity: < 50%

## OCC(c1ccccc1)c1c(-c2ccccc2)[nH]c2ccccc12 (racemic)
[1]
  Activity: < 50%

## Cc1ccc2c(C(CC#N)c3ccccc3)c(-c3ccccc3)[nH]c2c1 (racemic)
[4]
  Activity: > 50%

## FC(F)(F)CC(c1ccco1)c1c(-c2ccccc2)[nH]c2cc(Cl)ccc12 (racemic)
[5]
  Activity: > 50%

## Cc1ccc2c(C(C[N+](=O)[O-])c3cccs3)c(C3CC3)[nH]c2c1 (racemic)
[4]
  Activity: > 50%

## O=C(O)c1ccc2c(C(CC(F)(F)F)c3cccs3)c(-c3ccccc3)[nH]c2c1 (racemic)
[1]
  Activity: < 50%

## N#Cc1ccc2c([C@H](CC(F)(F)F)c3cccs3)c(-c3ccccc3)[nH]c2c1
[6]
  EC50: 342 nM
[7]
  EC50: 1210 nM
[8]
  EC50: 76 nM
[9]
  Emax: 89%
[10]
  EC50: 40 nM

## Cc1ccc2c(C(CC3CC3)CC(F)(F)F)c(-c3ccccc3)[nH]c2c1 (racemic)
[4]
  Activity: > 50%

## O=C(O)c1ccc(-c2[nH]c3cc(Cl)ccc3c2C(C[N+](=O)[O-])c2cccs2)cc1 (racemic)
[1]
  Activity: < 50%

## N#Cc1ccc2[nH]c(-c3ccccc3)c(C(C[N+](=O)[O-])c3cccs3)c2c1 (racemic)
[1]
  Activity: < 50%
[11]
  t1/2: 49.4 min
[12]
  t1/2: 8.2 min

## N#Cc1ccc2c(C(C[N+](=O)[O-])c3cccs3)c(-c3ccccc3)[nH]c2c1 (racemic)
[4]
  Activity: > 50%

## Cc1ccc2c(C(c3ccccc3)C(C#N)C#N)c(-c3ccccc3)[nH]c2c1 (racemic)
[4]
  Activity: > 50%

## COC(=O)c1ccc2c(C(CC(F)(F)F)c3cccs3)c(-c3ccccc3)[nH]c2c1 (racemic)
[2]
  Activity: > 50%
[3]
  Emax: 88%

## N#CCC(c1ccccc1)c1c(-c2ccccc2)[nH]c2cc(Cl)ccc12 (racemic)
[6]
  EC50: 1110 nM
[7]
  EC50: 2350 nM
[11]
  t1/2: 43.2 min
[12]
  t1/2: 22.5 min

## OC(C(c1ccccc1)c1c(-c2ccccc2)[nH]c2ccccc12)C(F)(F)F (racemic)
[1]
  Activity: 30 to 50%
[11]
  t1/2: 39.4 min
[12]
  t1/2: 18.2 min

## CC(=O)c1ccc2c(C(CC(F)(F)F)c3cccs3)c(-c3ccccc3)[nH]c2c1 (racemic)
[2]
  Activity: > 50%
[6]
  EC50: 158 nM
[7]
  EC50: 741 nM
[3]
  Emax: 121%
[11]
  t1/2: 51.2 min
[12]
  t1/2: 12.2 min

## Cc1ccc2c(C(c3cccs3)C(C#N)C#N)c(-c3ccccc3)[nH]c2c1 (racemic)
[4]
  Activity: > 50%
[11]
  t1/2: 31.2 min
[12]
  t1/2: 4.9 min

## O=[N+]([O-])CC(c1cccs1)c1c(-c2ccccc2)[nH]c2ccc([N+](=O)[O-])cc12 (racemic)
[1]
  Activity: < 50%

## N#CCC(c1ccccc1)c1c(-c2ccccc2)[nH]c2ccccc12 (racemic)
[1]
  Activity: < 50%

## N#CC(C#N)C(c1ccccc1)c1c(-c2ccccc2)[nH]c2cc(Cl)ccc12 (racemic)
[1]
  Activity: < 50%
[11]
  t1/2: 29.6 min
[12]
  t1/2: 13.5 min

## N#CC(C#N)C(c1ccccc1)c1c(-c2ccccc2)[nH]c2ccccc12 (racemic)
[1]
  Activity: < 50%

## O=C(O)CC(c1ccccc1)c1c(-c2ccccc2)[nH]c2ccccc12 (single isomer, unassigned; (+))
[1]
  Activity: < 50%

## FC(F)(F)CC(c1cccs1)c1c(-c2ccccc2)[nH]c2cc(C(F)(F)F)ccc12 (racemic)
[5]
  Activity: > 50%
[6]
  EC50: 322 nM
[7]
  EC50: 801 nM
[3]
  Emax: 203%
[11]
  t1/2: 49.7 min
[12]
  t1/2: 36.7 min

## O=[N+]([O-])CC(c1cccs1)c1c(-c2ccc(Cl)cc2)[nH]c2cc(Cl)ccc12 (racemic)
[1]
  Activity: < 50%

## Cc1ccc2[nH]c(-c3ccccc3)c(C(C[N+](=O)[O-])c3cccs3)c2c1 (racemic)
[4]
  Activity: > 50%

## N#Cc1ccc(-c2[nH]c3cc(Cl)ccc3c2C(C[N+](=O)[O-])c2cccs2)cc1 (racemic)
[1]
  Activity: < 50%

## CS(=O)(=O)c1ccc(-c2[nH]c3cc(Cl)ccc3c2C(C[N+](=O)[O-])c2cccs2)cc1 (racemic)
[1]
  Activity: < 50%

## O=C(O)CC(c1ccccc1)c1c(-c2ccccc2)[nH]c2ccccc12 (racemic) [listing 1 of 2 here]
[1]
  Activity: < 50%

## O=C(O)CC(c1ccccc1)c1c(-c2ccccc2)[nH]c2ccccc12 (racemic) [listing 2 of 2 here]
[11]
  t1/2: 62.7 min

## COC(=O)c1ccc(-c2[nH]c3cc(Cl)ccc3c2C(C[N+](=O)[O-])c2cccs2)cc1 (racemic)
[1]
  Activity: < 50%

## FC(F)(F)CC(c1cccs1)c1c(C2CCCC2)[nH]c2cc(C(F)(F)F)ccc12 (racemic)
[5]
  Activity: > 50%
[6]
  EC50: 301 nM
[7]
  EC50: 755 nM
[3]
  Emax: 162%
[11]
  t1/2: 47.1 min
[12]
  t1/2: 44.4 min

## COc1cccc(-c2[nH]c3cc(Cl)ccc3c2C(C[N+](=O)[O-])c2cccs2)c1 (racemic)
[1]
  Activity: < 50%

## CN(C)c1ccc(-c2[nH]c3cc(Cl)ccc3c2C(C[N+](=O)[O-])c2cccs2)cc1 (racemic)
[1]
  Activity: < 50%

## Cc1ccc2c(C(C[N+](=O)[O-])c3cccs3)c(-c3ccc(Cl)cc3)[nH]c2c1 (racemic)
[1]
  Activity: < 50%
[11]
  t1/2: 24.2 min
[12]
  t1/2: 9.8 min

## Cc1ccc2c(C(CC(F)(F)F)c3cccs3)c(-c3ccccc3)[nH]c2c1 (racemic)
[5]
  Activity: > 50%

## O=[N+]([O-])CC(c1cccs1)c1c(-c2ccccc2)[nH]c2cc(Cl)ccc12 (racemic)
[5]
  Activity: > 50%
[6]
  EC50: 462 nM
[7]
  EC50: 1530 nM
[11]
  t1/2: 32.7 min
[12]
  t1/2: 13.8 min

## CC(C)CN(C(=O)C(F)(F)F)c1c(-c2ccccc2)[nH]c2ccccc12
[1]
  Activity: 50%

## N#Cc1ccc2[nH]c(C3CCCCC3)c(C(C[N+](=O)[O-])c3cccs3)c2c1 (racemic)
[1]
  Activity: < 50%
[11]
  t1/2: 21.4 min
[12]
  t1/2: 3.8 min

## Cc1ccc2c(C(C[N+](=O)[O-])c3cccs3)c(C3CCCCC3)[nH]c2c1 (racemic)
[1]
  Activity: < 50%

## OCc1ccc2c(C(CC(F)(F)F)c3cccs3)c(-c3ccccc3)[nH]c2c1 (racemic)
[1]
  Activity: < 50%

## Cc1ccc2c(C(C[N+](=O)[O-])c3cccs3)c(C3CCCC3)[nH]c2c1 (racemic)
[4]
  Activity: > 50%

## O=C(C(c1ccccc1)c1c(-c2ccccc2)[nH]c2ccccc12)C(F)(F)F (racemic)
[1]
  Activity: 30 to 50%

## FC(F)(F)CC(c1ccccc1)c1c(-c2ccccc2)[nH]c2ccccc12 (racemic)
[4]
  Activity: > 50%
[1]
  Activity: 30 to 50%

## Cc1ccc2[nH]c(-c3ccccc3)c(C(CC(F)(F)F)c3cccs3)c2c1 (racemic)
[1]
  Activity: < 50%

## FC(F)(F)CC(c1cccs1)c1c(-c2ccccc2)[nH]c2cc(Cl)ccc12 (racemic)
[2]
  Activity: > 50%

## Cc1ccc2c(C(C[N+](=O)[O-])c3cccs3)c(-c3ccc(F)cc3)[nH]c2c1 (racemic)
[1]
  Activity: < 50%

## CC(=O)c1ccc(-c2[nH]c3cc(Cl)ccc3c2C(C[N+](=O)[O-])c2cccs2)cc1 (racemic)
[1]
  Activity: < 50%

## O=C(N(CC1CC1)c1c(-c2ccccc2)[nH]c2ccccc12)C(F)(F)F
[1]
  Activity: 50%

## COC(=O)c1ccc2c(C(CC(F)(F)F)c3cccs3)c(-c3ccccc3)[nH]c2c1 (single isomer, unassigned; (-))
[2]
  Activity: > 50%

## O=[N+]([O-])CC(c1cccs1)c1c(-c2ccc(F)cc2)[nH]c2cc(Cl)ccc12 (racemic)
[1]
  Activity: < 50%

## N#Cc1cccc(-c2[nH]c3cc(Cl)ccc3c2C(C[N+](=O)[O-])c2cccs2)c1 (racemic)
[1]
  Activity: < 50%

## O=[N+]([O-])CC(c1cccs1)c1c(-c2ccccc2)[nH]c2cc(C(F)(F)F)ccc12 (racemic)
[6]
  EC50: 284 nM
[7]
  EC50: 974 nM
[11]
  t1/2: 30.7 min
[12]
  t1/2: 15.6 min

## COc1ccc(-c2[nH]c3cc(Cl)ccc3c2C(C[N+](=O)[O-])c2cccs2)cc1 (racemic)
[1]
  Activity: < 50%

## CC(=O)Nc1ccc2c(C(CC(F)(F)F)c3cccs3)c(-c3ccccc3)[nH]c2c1 (racemic)
[1]
  Activity: < 50%

## Cc1ccc2[nH]c(-c3ccccc3)c(C(CC(F)(F)F)c3ccccc3)c2c1 (racemic)
[1]
  Activity: < 50%
